According to patent US10717731B2, “Nitrogen-containing aromatic heterocyclic compound” (MITSUBISHI TANABE PHARMA CORPORATION, priority 2015, dated 2020):

Each compound was assayed against T1, human CYP11B2 (Homo sapiens, UniProt P19099) (assay: Inhibitory effect on hCYP11B2: aldosterone production in mitochondrial fraction of V79 cells stably expressing human CYP11B2, HTRF). Conditions: 0.5 μmol/L deoxycorticosterone, 150 μmol/L NADPH, 1.5-2 hours at room temperature.
T1 construct: expressed in transfected cells; mitochondrial fraction
T1 sequence (P19099 25-503): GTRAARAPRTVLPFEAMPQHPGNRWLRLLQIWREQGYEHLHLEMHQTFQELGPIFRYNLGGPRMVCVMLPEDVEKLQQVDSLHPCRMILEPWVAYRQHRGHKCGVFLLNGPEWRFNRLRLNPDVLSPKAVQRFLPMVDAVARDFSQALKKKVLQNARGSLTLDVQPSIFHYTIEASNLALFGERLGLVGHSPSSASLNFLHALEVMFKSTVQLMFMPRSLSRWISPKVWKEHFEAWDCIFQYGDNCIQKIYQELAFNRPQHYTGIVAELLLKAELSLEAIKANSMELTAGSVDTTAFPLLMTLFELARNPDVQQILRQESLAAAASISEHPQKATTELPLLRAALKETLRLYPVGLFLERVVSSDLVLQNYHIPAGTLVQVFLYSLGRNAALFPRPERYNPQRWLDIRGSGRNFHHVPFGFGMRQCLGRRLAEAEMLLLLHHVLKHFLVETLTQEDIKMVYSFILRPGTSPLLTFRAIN
Assay type: biochemical
Protocol: Experimental Example 1 (Inhibitory Effect on hCYP11B2)
The pcDNA3.1-human CYP11B2 plasmid was transfected into a Chinese hamster lung fibroblast V79 cell line to produce a cell line stably expressing human CYP11B2 gene.
The cells were cultured and grown in the Dulbecco's modified Eagle's/Ham's medium supplemented with 10% fetal bovine serum and 1% G418 disulfate solution under the environment of 37° C., 95% air, and 5% CO2, and the grown cells were harvested.
Then, the cells were fractionated to obtain mitochondria by reference to a method described in Chabre et al. JCE & M 85 (11) 4060-68, 2000. In particular, the cells suspended in a 5 mmol/L Tris-HCl buffer (pH 7.4) containing 250 mmol/L sucrose were homogenized in a Teflon (Registered Trademark) Potter Elvehjem homogenizer, and then the suspension was centrifuged (800×g, 15 min.). The supernatant was separated and again centrifuged (10000×g, 15 min.) to obtain a pellet (mitochondrial fraction).
The mitochondrial fraction diluted with a buffer containing 10 mmol/L KH2PO4, 10 mmol/L Tris, 20 mmol/L KCl, 25 mmol/L sucrose, 5 mmol/L MgCl2, and 0.05% bovine serum albumin was dispensed to a 96-well plate. 0.5 μmol/L Deoxycorticosterone, 150 μmol/L NADPH and a compound of each concentration were added to each well, and incubated for 1.5-2 hours at room temperature to produce aldosterone. An amount of the produced aldosterone in the incubated solution was determined by using HTRF (Homogeneous Time Resolved Fluorescence) method.
IC50 (nmol/L) was calculated by analyzing the aldosterone production inhibition rate (%) of each concentration of compounds by non-linear regression to a logistic curve.

| IC50 [nM] | SMILES |
| --- | --- |
| 7.4 | O=C(CN1CCN(c2cc(-c3ccc(F)cc3)cnn2)CC1)N[C@@H]1CCNC[C@H]1F (single isomer, unassigned) [Example 89a] |
| 14 | C[C@H](O)CNC(=O)CN1CCN(c2cncc(-c3ccc4cnn(C)c4c3)n2)CC1 [Example 18] |
| 16 | CS(=O)(=O)CCN1CCC(NC(=O)CN2CCN(c3cc(-c4ccc(F)cc4)cnn3)CC2)CC1 [Example 71] |
| 19 | O=C(CN1CCN(c2cc(-c3ccc(F)cc3)cnn2)CC1)NCCN1CCS(=O)(=O)CC1 [Example 74] |
| 9.1 | CC1CC=C(c2cnnc(N3CCN(CC(=O)NC(C)C)CC3)c2)CC1 (centres unmarked) [Example 81] |
| 9.6 | O=C(CN1CCN(c2cncc(-c3ccc(Cl)cc3)n2)CC1)NC1CCS(=O)(=O)CC1 [Example 41] |
| 3.9 | O=C1CN([C@H]2CC[C@@H](NC(=O)CN3CCN(c4cncc(-c5ccc(F)cc5)n4)CC3)CC2)CCN1 [Example 33] |
| 22 | Cc1ccccc1-c1cnnc(N2CCN(CC(=O)N[C@H]3CC[C@@H](N(C)C)CC3)CC2)c1 [Example 77] |
| 6.9 | CC1CC=C(c2cncc(N3CCN(CC(=O)NC(C)C)CC3)c2)CC1 (centres unmarked) [Example 16] |
| 41 | CN(C)[C@H]1CC[C@@H](NC(=O)CN2CCN(c3cc(-c4c(F)cccc4F)cnn3)CC2)CC1 [Example 67] |
| 6 | O=C(CN1CCN(c2cc(-c3ccc(Cl)cc3)cnn2)CC1)NC1CCS(=O)(=O)CC1 [Example 70] |
| 23 | CNC(=O)CN1CCC(NC(=O)CN2CCN(c3cc(-c4ccc(C)cc4)cnn3)CC2)CC1 [Example 59] |
| 7 | O=C(CN1CCN(c2cncc(-c3ccc(F)cc3)n2)CC1)NC1CCN(C2CCOCC2)CC1 [Example 34] |
| 11 | CS(=O)(=O)N1CCC(CNC(=O)CN2CCN(c3cc(-c4ccc(F)cc4)cnn3)CC2)CC1 [Example 62] |
| 28 | O=C(CN1CCN(c2cc(-c3ccc(F)cc3)cnn2)CC1)NC1CCN(CCO)CC1 [Example 78] |
| 32 | CC1CCC(c2cnnc(N3CCN(CC(=O)NC(C)C)CC3)c2)CC1 (centres unmarked) [Example 84] |

| IC50 [nM] | SMILES |
| --- | --- |
| 8.4 | CC(=O)N[C@H]1CC[C@@H](NC(=O)CN2CCN(c3cncc(-c4ccc(F)cc4)n3)CC2)CC1 [Example 37] |
| 8.3 | CNC(=O)COC1CCC(NC(=O)CN2CCN(c3cc(-c4ccc(Cl)cc4)cnn3)CC2)CC1 (centres unmarked) [Example 68] |
| 12 | CC(=O)N[C@H]1CC[C@@H](NC(=O)CN2CCN(c3cc(-c4ccc(Cl)cc4)cnn3)CC2)CC1 [Example 69] |
| 25 | CC(C)NC(=O)CN1CCN(c2cncc(-c3ccc(C#N)nc3)n2)CC1 [Example 53] |
| 2.5 | Cc1ccccc1-c1cnnc(N2CCN(CC(=O)Nc3cccnc3)CC2)c1 [Example 61] |
| 4.5 | CO[C@H]1CC[C@@H](NC(=O)CN2CCN(c3cncc(-c4ccc(C)cc4)n3)CC2)CC1 [Example 20] |
| 40 | CC(C)[C@@H](CO)NC(=O)CN1CCN(c2cncc(-c3ccc(C(F)(F)F)cc3)n2)C[C@H]1C [Example 42] |
| 17 | CN(C)[C@H]1CC[C@H](NC(=O)CN2CCN(c3cc(-c4ccc(Cl)cc4)cnn3)CC2)CC1 [Example 80] |
| 38 | CC(C)NC(=O)CN1CCN(c2cncc(-c3ccc4cn[nH]c4c3)n2)CC1 [Example 56] |
| 18 | CC(C)NC(=O)CN1CCN(c2cncc(-c3ccc(C#N)nc3)c2)CC1 [Example 11] |
| 22 | Cc1ccccc1-c1cncc(N2CCN(CC(=O)NC3CCN(CCS(C)(=O)=O)CC3)CC2)n1 [Example 47] |
| 30 | CC(C)NC(=O)CN1CCN(c2cncc(-c3ccc4cn[nH]c4c3)c2)CC1 [Example 14] |
| 102 | CC(C)NC(=O)CN1CCN(c2cc(-c3ccc(C#N)nc3)cnn2)CC1 [Example 83] |
| 4.8 | O=C(CN1CCN(c2cncc(-c3ccc(F)cc3)n2)CC1)NC1CCN(c2ncccn2)CC1 [Example 36] |
| 18 | CC(C)NC(=O)CN1CCN(c2cncc(-c3ccc4cnn(C)c4c3)c2)CC1 [Example 15] |

| SMILES | IC50 [nM] |
| --- | --- |
| Cc1ccccc1-c1cncc(N2CCN(CC(=O)N[C@H]3CN4CCC3CC4)CC2)n1 [Example 48] | 14 |
